Measurements published in article PMC6364417, “Kinase inhibitor library screening identifies synergistic drug combinations effective in sensitive and resistant melanoma cells” (Journal of Experimental & Clinical Cancer Research : CR, 2019).

What was measured:
Assay in all cases: Kinase inhibitor library screening, PrestoBlue cell viability, 1 or 10 μM, 72 h
[1] = tested on: 501Mel-XP cells (Vemurafenib-resistant); settings: 501Mel XP, 72 h; for cell viability, 501Mel XP, 1μΜ / cell viability, 501Mel XP, 10μΜ: in %
Method: (§1) After 72 h of treatment, cell viability was assessed using the PrestoBlue Cell Viability Reagent (ThermoFisher Scientific). Measurements were performed with the CLARIOstar Monochromator microplate reader (BMG Labtech).
(§2) Kinase inhibitor library screening. […] Each cell line was treated in its sensitive form (parental), and also as 2 resistant derivatives, which were made resistant to either Vemurafenib (XP) or Dabrafenib (GP). Drugs were added at 2 different concentrations, 1 and 10 μM, for 72 h and cell viability was assessed using the PrestoBlue Cell Viability assay. Results are depicted as % viability compared to untreated cells. Each cell line was analyzed at least in duplicate. […] (XLSX 95 kb)

A375 cells (parental) = settings: A375 Parental, 72 h; for cell viability, A375 Parental, 1μΜ / cell viability, A375 Parental, 10μΜ: in %
Method: as §1, §2

[2] = tested on: IGR37-XP cells (Vemurafenib-resistant); settings: IGR37 XP, 72 h; for cell viability, IGR37 XP, 1μΜ: in %
Method: as §1, §2

501Mel cells (parental) = settings: 501Mel Parental, 72 h; for cell viability, 501Mel Parental, 1μΜ / cell viability, 501Mel Parental, 10μΜ: in %
Method: as §1, §2

[3] = tested on: 501Mel-GP cells (Dabrafenib-resistant); settings: 501Mel GP, 72 h; for cell viability, 501Mel GP, 1μΜ / cell viability, 501Mel GP, 10μΜ: in %
Method: as §1, §2

[4] = tested on: IGR37-GP cells (Dabrafenib-resistant); settings: IGR37 GP, 72 h; for cell viability, IGR37 GP, 1μΜ: in %
Method: as §1, §2

[5] = tested on: A375-XP cells (Vemurafenib-resistant); settings: A375 XP, 72 h; for cell viability, A375 XP, 1μΜ / cell viability, A375 XP, 10μΜ: in %
Method: as §1, §2

[6] = tested on: A375-GP cells (Dabrafenib-resistant); settings: A375 GP, 72 h; for cell viability, A375 GP, 1μΜ / cell viability, A375 GP, 10μΜ: in %
Method: as §1, §2

IGR37 cells (parental) = settings: IGR37 Parental, 72 h
Method: as §1, §2

Row | Structure (SMILES) | cell viability, 501Mel XP, 1μΜ ([1]; 1μΜ) | cell viability, 501Mel XP, 10μΜ ([1]; 10μΜ) | cell viability, A375 Parental, 1μΜ (A375 cells (parental); 1μΜ) | cell viability, A375 Parental, 10μΜ (A375 cells (parental); 10μΜ) | cell viability, IGR37 XP, 10μΜ ([2]; 10μΜ) [%] | cell viability, IGR37 XP, 1μΜ ([2]; 1μΜ) | cell viability, 501Mel Parental, 1μΜ (501Mel cells (parental); 1μΜ) | cell viability, 501Mel Parental, 10μΜ (501Mel cells (parental); 10μΜ) | cell viability, 501Mel GP, 1μΜ [3] | cell viability, 501Mel GP, 10μΜ ([3]; 10μΜ) | cell viability, IGR37 GP, 10μΜ ([4]; 10μΜ) [%] | cell viability, IGR37 GP, 1μΜ [4] | cell viability, A375 XP, 1μΜ ([5]; 1μΜ) | cell viability, A375 XP, 10μΜ [5] | cell viability, A375 GP, 1μΜ [6] | cell viability, A375 GP, 10μΜ ([6]; 10μΜ) | cell viability, IGR37 Parental, 10μΜ (IGR37 cells (parental); 10μΜ, in %) | also measured
1 | N#Cc1c(O)c2c(-c3ccc(-c4ccccc4O)cc3)csc2[nH]c1=O [A-769662] |  |  |  |  |  |  |  |  |  |  |  |  |  |  |  |  |  | cell viability (kinase inhibitor library screening) ([1]; 1μΜ): 97.4%; cell viability (kinase inhibitor library screening) ([1]; 10μΜ): 85.6%; cell viability (kinase inhibitor library screening) (A375 cells (parental); 10μΜ): 97.0%; cell viability (kinase inhibitor library screening) (A375 cells (parental); 1μΜ): 105.0%; cell viability (kinase inhibitor library screening) ([2]; 1μΜ): 104.5%; cell viability (kinase inhibitor library screening) ([2]; 10μΜ): 84.8%; cell viability (kinase inhibitor library screening) (501Mel cells (parental); 1μΜ): 99.2%; cell viability (kinase inhibitor library screening) (501Mel cells (parental); 10μΜ): 97.1%; cell viability (kinase inhibitor library screening) ([3]; 10μΜ): 87.9%; cell viability (kinase inhibitor library screening) ([4]; 10μΜ): 94.7%; cell viability (kinase inhibitor library screening) ([5]; 1μΜ): 104.3%; cell viability (kinase inhibitor library screening) ([6]; 10μΜ): 96.0%; cell viability (kinase inhibitor library screening) (IGR37 cells (parental); 1μΜ): 105.9%; cell viability (kinase inhibitor library screening) (IGR37 cells (parental); 10μΜ): 111.3%
2 | CCN1CCN(Cc2ccc(-c3cc4c(N[C@H](C)c5ccccc5)ncnc4[nH]3)cc2)CC1 [AEE788 (NVP-AEE788)] | 105.3 | 0.239 | 108.2 | 70.3 | 25.4 | 82.4 | 103.7 | 1.2 | 114.3 | 1.2 | 82.6 | 94.0 | 105.5 | 70.7 | 110.2 | 49.2 | 87.9 | 
3 | N#C/C(=C\c1ccc(O)c(O)c1)C(=O)NCc1ccccc1 [AG-490] | 93.1 | 79.3 |  | 88.6 | 70.7 | 104.5 | 99.1 | 92.7 | 105.8 | 86.5 | 88.3 |  | 99.9 | 91.1 |  | 88.5 |  | cell viability, IGR37 Parental, 1μΜ (IGR37 cells (parental); 1μΜ, in %): 105.9
4 | CC(C)(C)c1cc(C=C(C#N)C#N)cc(Br)c1O [AG-1024] | 99.5 | 85.0 | 99.7 | 86.3 | 46 | 95.7 | 98.8 | 98.3 | 109.0 | 85.4 | 76.8 | 96.1 | 106.8 | 89.1 | 98.0 | 86.9 | 96.2 | 
